Test results: patent publication US11434242B2, “Dopamine-b-hydroxylase inhibitors” (BIAL-PORTELA & Cª, S.A., priority 2017, dated 2022)
Marks after values point to notes of the source that are not given here.

Biological target: T1, Dopamine beta hydroxylase (Homo sapiens, UniProt P09172)
T1 construct: 125 μl of plasma; tissue Instituto Português do Sangue Transplantação; host or cells: human plasma from healthy donors
T1 sequence (P09172 40-617 limits assumed): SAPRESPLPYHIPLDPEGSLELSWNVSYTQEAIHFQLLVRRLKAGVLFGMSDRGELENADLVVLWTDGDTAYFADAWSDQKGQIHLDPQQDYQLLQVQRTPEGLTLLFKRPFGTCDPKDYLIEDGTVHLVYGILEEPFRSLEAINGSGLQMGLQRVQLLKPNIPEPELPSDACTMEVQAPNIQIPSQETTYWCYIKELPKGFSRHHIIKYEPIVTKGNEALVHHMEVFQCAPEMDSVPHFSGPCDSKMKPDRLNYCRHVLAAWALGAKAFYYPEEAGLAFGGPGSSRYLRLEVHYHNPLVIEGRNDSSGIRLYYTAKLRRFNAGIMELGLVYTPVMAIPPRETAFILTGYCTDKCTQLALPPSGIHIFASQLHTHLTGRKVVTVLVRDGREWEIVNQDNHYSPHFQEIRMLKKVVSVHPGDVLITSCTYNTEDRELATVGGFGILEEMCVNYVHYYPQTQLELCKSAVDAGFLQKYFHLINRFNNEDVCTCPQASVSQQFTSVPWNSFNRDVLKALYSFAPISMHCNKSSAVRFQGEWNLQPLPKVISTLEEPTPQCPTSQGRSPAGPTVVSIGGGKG
Assay: Dopamine beta hydroxylase activity in human plasma
Type: biochemical
Conditions: for Plasma (1 μM), activity in % of control: inhibitor 1 μM
Procedure, shortened: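 Octopamine production from tyramine over 45 min at 37° C, measured photometrically at 330 nm after SCX extraction and periodate oxidation against an octopamine standard curve, indicates plasma DβH activity. Compounds tested at final 10, 100 and 1000 nM in human plasma, pH 5.0 cofactor buffer, 10 min preincubation; results as % of control.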

| Plasma (0.01 μM), activity in % of control (inhibitor 0.01 μM) | Plasma (0.1 μM), activity in % of control (inhibitor 0.1 μM) | Plasma (1 μM), activity in % of control | Plasma (0.01 μM), activity in % of control, re-test (asterisked) (inhibitor 0.01 μM, re-tested under the same experimental conditions, asterisked data believed to be correct) | Plasma (0.1 μM), activity in % of control, re-test (asterisked) (inhibitor 0.1 μM, re-tested under the same experimental conditions, asterisked data believed to be correct) | SMILES |
| --- | --- | --- | --- | --- | --- |
| 96.0 % of control | 40.9 % of control |  |  |  | Cn1c(CC(N)=O)c2n(c1=S)C[C@H](c1c(F)ccc(Cl)c1F)C2 [Example 249, (S)-2-(6-(3-chloro-2,6-difluorophenyl)-2-methyl-3-thioxo-2,5,6,7-tetrahydro-3H-pyrrolo[1,2-c]imidazol-1-yl)acetamide] |
|  | 9.9 % of control | 0.4 % of control |  |  | O=C(Cc1[nH]c(=S)n2c1C[C@@H](c1c(F)ccc(Br)c1F)C2)N[C@@H]1CCOC1 [Example 90, 2-((S)-6-(3-bromo-2,6-difluorophenyl)-3-thioxo-2,5,6,7-tetrahydro-3H-pyrrolo[1,2-c]imidazol-1-yl)-N—((R)-tetrahydrofuran-3-yl)acetamide] |
|  | 72.9 % of control | 12.7 % of control |  |  | O=C(O)Cc1[nH]c(=S)n2c1C[C@@H](c1cc(Br)ccc1F)C2 [Example 16, (S)-2-(6-(5-bromo-2-fluorophenyl)-3-thioxo-2,5,6,7-tetrahydro-3H-pyrrolo[1,2-c]imidazol-1-yl)acetic Acid] |
| 84.8 % of control | 51.7 % of control |  | 67.6* % of control | 15.0* % of control | Cn1c(CC(=O)N2CCCCC2)c2n(c1=S)C[C@@]1(c3cc(Br)ccc3F)C[C@@H]21 [Example 312, 2-((5aS,6aR)-5a-(5-bromo-2-fluorophenyl)-2-methyl-3-thioxo-2,3,5,5a,6,6a-hexahydrocyclopropa[3,4]pyrrolo[1,2-c]imidazol-1-yl)-1-(piperidin-1-yl)ethan-1-one] |
| 75.3 % of control | 25.4 % of control |  |  |  | Cn1c(CC(=O)NC2CCOCC2)c2n(c1=S)C[C@H](c1c(F)ccc(F)c1F)C2 [Example 416, (S)-2-(2-methyl-3-thioxo-6-(2,3,6-trifluorophenyl)-2,5,6,7-tetrahydro-3H-pyrrolo[1,2-c]imidazol-1-yl)-N-(tetrahydro-2H-pyran-4-yl)acetamide] |
| 62.7 % of control | 7.7 % of control |  |  |  | Cn1c(CC(=O)NC2CCCCC2)c2n(c1=S)C[C@@]1(c3cc(Cl)ccc3F)C[C@@H]21 [Example 302, 2-((5aS,6aR)-5a-(5-chloro-2-fluorophenyl)-2-methyl-3-thioxo-2,3,5,5a,6,6a-hexahydrocyclopropa[3,4]pyrrolo[1,2-c]imidazol-1-yl)-N-cyclohexylacetamide] |
|  | 67.9 % of control | 19.5 % of control |  |  | O=C(Cc1[nH]c(=S)n2c1C[C@H](c1c(F)c(F)cc(F)c1F)C2)N1CCCC1 [Example 104, (R)-1-(pyrrolidin-1-yl)-2-(6-(2,3,5,6-tetrafluorophenyl)-3-thioxo-2,5,6,7-tetrahydro-3H-pyrrolo[1,2-c]imidazol-1-yl)ethan-1-one] |
| 11.4 % of control | 1.2 % of control |  |  |  | Cn1c(CC(=O)N2CCS(=O)(=O)CC2)c2n(c1=S)C[C@H](c1c(F)ccc(Br)c1F)C2 [Example 235, (S)-2-(6-(3-bromo-2,6-difluorophenyl)-2-methyl-3-thioxo-2,5,6,7-tetrahydro-3H-pyrrolo[1,2-c]imidazol-1-yl)-1-(1,1-dioxidothiomorpholino)ethan-1-one] |
